Assay results: PMC7838189, “Natural podophyllotoxin analog 4DPG attenuates EMT and colorectal cancer progression via activation of checkpoint kinase 2” (Cell Death Discovery, 2021)

What was measured:
Format in all cases: cell-based
SW-620/5-FU-R cells [1] = assay: In situ fluorescent gelatin degradation assay (invadopodia); settings: 48 h, vs vehicle
Source text: (§1) 4DPG, a podophyllotoxin class of natural product anticancer compound (Supplementary Fig. S2A) has been recently described by our research group for its potent antitumor and anti-metastatic properties against aggressive cancers[31],[32]. Further, 4DPG augments phosphorylation and activation of Chk2 (Thr68) leading to suppression of EMT and invasiveness of p53-defective cancer cells. To investigate the effect of 4DPG on phosphorylation and expression levels of Chk2 in HCT-116/5-FU-R, SW-620/5-FU-R, and HT-29/5-FU-R cells, we treated these cells for 48 h with increasing concentrations of the compound, and whole-cell lysates were subjected to western blotting analysis. […] To determine the effect of 4DPG on the invasion abilities of these 5-FU-R cells, we performed in situ fluorescent gelatin degradation assay following our pre-standardized protocol[31],[37]. In physiological conditions, this assay mimics the extracellular matrix degradation by aggressive tumor cells undergoing invasion–metastasis process.
Fig. 2 4DPG activates Chk2 and attenuates EMT in 5-FU-R CRC cells. […] G Quantification of the area of degradation through Image J software. n = 3, error bars, mean ± SD; ***P < 0.001. […]

SW-620/5-FU-R cells [2] = assay: Immunocytochemistry of Vimentin; settings: 48 h
Source text: as §1
To examine whether 4DPG-mediated repression of Vimentin and invasiveness is a Chk2-dependent process, we performed genetic silencing of endogenous Chk2 in the 5-FU-R cells using target-specific SiRNAs.
Fig. 3 Chk2-dependent role of 4DPG in modulating p53 and repressing Vimentin expression in 5-FU-R cells. A Immunocytochemistry results showing the Vimentin expression level in SW-620/5-FU-R cells treated/transfected with scramble, SiChk2, scramble plus 4DPG, SiChk2 plus 4DPG, vehicle, PV1019, 4DPG, and PV1019 plus 4DPG for 48 h. Scale bars: 50 µm. […] C Matrigel invasion assay results showing invaded HCT-116/5-FU-R and SW-620/5-FU-R cells following 48 h of transient transfection with GFP and GFP-Chk2 plasmid construct. Scale bars: 50 µm. D Quantification of the number of invaded cells per field from the above experimental conditions. n = 3, error bars, mean ± SD; *P < 0.05, ***P < 0.001. E Immunocytochemistry results displaying Vimentin expression levels in HCT-116/5-FU-R and SW-620/5-FU-R cells after 48 h of transient transfection with pCDNA3 and/or HA-Chk2 plasmid construct. Scale bars: 50 µm. F Immunoprecipitation with Vimentin or p53 followed by western blotting analysis of p53 in SW-620/5-FU-R cells treated with vehicle and/or 4DPG (300 nM) for 48 h. G Cytosolic (left panel) and nuclear (right panel) extracts of SW-620/5-FU-R cells treated with vehicle and/or 4DPG (300 nM) for 48 h showing protein expression of Vimentin and p53. Tubulin and lamin expression was considered as endogenous loading controls for cytosolic and nuclear fractions, respectively.
We followed the standard protocol with some modifications for immunocytochemistry[56],[58]. In brief, cells, at a density of 4 × 10^5 cells/well, were seeded over the sterile coverslips placed in six-well plates. Following the respective treatment, cells were washed thrice with PBS. Next, the cells were fixed with 4% paraformaldehyde (pH = 7.4) for 15 min, permeabilized with 0.3% Triton X-100 for 10 min, and then blocked with 1% goat serum for 30 min. Consequently, the cells were incubated with anti-Vimentin antibody overnight at 4 °C, at a dilution of 1:100, followed by washing with PBST and further incubation with secondary anti-rabbit Alexa Fluor 488 (1:750 dilution). After subsequent washing and mounting, the images were captured at ×20 magnification under Floid Cell Imaging Station (Invitrogen).

HCT-116/5-FU-R cells = assay: Western blotting of Chk2 and EMT markers after 4DPG; settings: 48 h
Source text: as §1
(§2) Fig. 2 4DPG activates Chk2 and attenuates EMT in 5-FU-R CRC cells. A Western blotting analysis results portraying protein expression of p-Chk2 (Thr68) and Chk2 in HCT-116/5-FU-R and SW-620/5-FU-R cells in response to increasing concentrations of 4DPG, treated for 48 h. β-Actin expression was considered as endogenous loading control. B Densitometry analysis showing relative protein expression of western blot bands presented above. n = 3, error bars: mean ± SD; ***P < 0.001. C Western blots depicting protein expression of EMT markers in HCT-116/5-FU-R and SW-620/5-FU-R cells in response to increasing concentrations of 4DPG, treated for 48 h. β-Actin expression was considered as endogenous loading control. […] E Immunocytochemistry results displaying the protein expression levels of Vimentin in HCT-116/5-FU-R and SW-620/5-FU-R cells, treated with vehicle and/or 4DPG (300 nM) for 48 h. Scale bars: 50 µm. F In situ fluorescent gelatin degradation assay results showing the invadopodia/footprints of invaded SW-620/5-FU-R cells treated with vehicle and/or 4DPG at the indicated concentration for 48 h. Blue stains over the green background display DAPI staining of nuclei of cells. G Quantification of the area of degradation through Image J software. n = 3, error bars, mean ± SD; ***P < 0.001.
(§3) We adhered to the previously published protocol for western blotting. To sum up, cells were exposed to the respective treatments (mentioned in figure legends). Post-treatment, cells were lysed with cell lysis buffer, and cell lysates were collected after centrifugation. Bradford assay was performed to quantify the protein concentration. Equal amount of protein was taken from each sample to carry out the western blot analysis. SDS-PAGE was employed to separate the proteins that were later transferred onto PVDF membranes (Millipore, Billerica, MA). Next, the membranes were blocked with 5% skim milk and subsequently incubated with the specific primary antibodies (1:1000 dilution), either for 3 h at room temperature or overnight at 4 °C. Later, the blots were washed thoroughly with TBST and probed with the respective secondary antibodies (1:2000 dilution) coupled with horseradish peroxidase for 1 h. Following thorough washing, the membranes were visualized using enhanced chemiluminescence reagent (Millipore) and captured onto Biomax light film (The Eastman Kodak Co., Rochester, NY).

SW-620/5-FU-R cells [3] = assay: as above; settings: 48 h
Source text: as §1, §2, §3

[4] = increasing concentrations, immunoblot

COc1cc([C@@H]2c3cc4c(cc3C[C@H]3COC(=O)[C@@H]32)OCO4)cc(OC)c1O[C@@H]1O[C@H](CO)[C@@H](O)[C@H](O)[C@H]1O [4DPG, 4′-demethyl-deoxypodophyllotoxin glucoside]
invadopodia formation and area of degradation over the gelatin matrix (SW-620/5-FU-R cells [1]): significantly reduced | Vimentin expression level (immunocytochemistry) (SW-620/5-FU-R cells [2]; 300 nM): considerable decrease | inhibition of Vimentin level by 4DPG (SW-620/5-FU-R cells [2]; PV1019 plus 4DPG): negligible inhibition | inhibition of Vimentin level by 4DPG (SW-620/5-FU-R cells [2]; SiChk2 plus 4DPG (Chk2-silenced)): mild inhibition | Vimentin level (immunocytochemistry) (SW-620/5-FU-R cells [2]; scramble plus 4DPG): substantial reduction | increase in p-Chk2 (Thr68) level (HCT-116/5-FU-R cells; 300 nM (sub-toxic), vs vehicle): 12 fold | expression of Chk2 (total) (HCT-116/5-FU-R cells; vs vehicle): did not alter significantly | amplification of E-cadherin (HCT-116/5-FU-R cells; increasing concentrations): ≤ 12.8 fold | amplification of TIMP-1 (HCT-116/5-FU-R cells; increasing concentrations): up to 12.5 fold | p-Vimentin (ser38), Vimentin, Twist1 and MMP-2 expression (HCT-116/5-FU-R cells; [4]): remarkable downregulation | increase in p-Chk2 (Thr68) level (SW-620/5-FU-R cells [3]; 300 nM (sub-toxic), vs vehicle): 11.2 fold | expression of Chk2 (total) (SW-620/5-FU-R cells [3]; vs vehicle): did not alter significantly | amplification of E-cadherin (SW-620/5-FU-R cells [3]; increasing concentrations): ≤ 10.2 fold | amplification of TIMP-1 (SW-620/5-FU-R cells [3]; increasing concentrations): ≤ 7.2 fold | p-Vimentin (ser38), Vimentin, Twist1 and MMP-2 expression (SW-620/5-FU-R cells [3]; [4]): remarkable downregulation
